Assay results published in patent US9585988B2, “Anchorage devices comprising an active pharmaceutical ingredient” (TYRX, Inc., priority 2010, dated 2017).

What was measured:
[1] = system: myofibroblast formation; details: Ajmal et al. (2003); cited from earlier work
[2] = Pocket concentration of antibiotic after implantation; assay type: in vivo; details: other: implantation
[3] = Tissue concentration of antibiotic after implantation; assay type: in vivo; details: other: implantation
[4] = Post implant serum concentration of antibiotic; assay type: in vivo; details: other: implantation
[5] = after about 2 hours, range worded for embodiments, see Table 8
[6] = after about 6 hours, range worded for embodiments, see Table 8
[7] = 2 h, Left, read-out: Average Tissue concentration
[8] = 2 h, Right, read-out: Average Tissue concentration
[9] = 6 h, Left, read-out: Average Tissue concentration
[10] = 6 h, Right, read-out: Average Tissue concentration
[11] = 24 h, Left, read-out: Average Tissue concentration
[12] = 24 h, Right, read-out: Average Tissue concentration
[13] = after about 2 hours, range worded for embodiments, see Table 7, read-out: tissue concentration
[14] = after about 6 hours, range worded for embodiments, see Table 7, read-out: tissue concentration
[15] = after about 24 hours, range worded for embodiments, see Table 7, read-out: tissue concentration
[16] = after about 2 hours, range worded for embodiments, see Table 9
[17] = after about 6 hours, range worded for embodiments, see Table 9
[18] = after about 24 hours, range worded for embodiments, see Table 9

Row | SMILES | concentration at 2 h ([2]; 2 h, Left) [ng/mL] | concentration at 6 h ([2]; 6 h, Left) [ng/mL] | concentration at 6 h ([2]; 6 h, Right) [ng/mL] | concentration at 2 h [2, 5] [ng/mL] | concentration at 6 h [2, 6] [ng/mL] | concentration at 2 h [3, 7] [ng/mL] | concentration at 2 h [3, 8] [ng/mL] | concentration at 6 h [3, 9] [ng/mL] | concentration at 6 h [3, 10] [ng/mL] | concentration at 24 h [3, 11] [ng/mL] | concentration at 24 h [3, 12] [ng/mL] | concentration at 2 h [3, 13] [ng/mL] | concentration at 6 h [3, 14] [ng/mL] | concentration at 24 h [3, 15] [ng/mL] | concentration at 2 h ([4]; 2 h) [ng/mL] | concentration at 6 h ([4]; 6 h) [ng/mL] | concentration at 24 h ([4]; 24 h) [ng/mL] | concentration at 2 h [4, 16] [ng/mL] | concentration at 6 h [4, 17] [ng/mL] | concentration at 24 h [4, 18] [ng/mL] | also measured
1 | O=S(=O)([O-])CCS.[Na+] [MESNA, sodium 2-mercaptoethane sulfonate] | – | – | – | – | – | – | – | – | – | – | – | – | – | – | – | – | – | – | – | – | myofibroblast formation [1]: diminish myofibroblast formation
2 | CN(C)c1ccc(O)c2c1C[C@H]1C[C@H]3[C@H](N(C)C)C(O)=C(C(N)=O)C(=O)[C@@]3(O)C(O)=C1C2=O [Minocycline] | 16400 | 26800 | 207000 | 15000 to 17000 | 25000 to 210000 | 700 | 783 | 2680 | 2600 | 1330 | 1840 | 650 to 800 | 2550 to 2750 | 1200 to 1900 | 46.5 | 79.1 | 69.4 | 30 to 60 | 60 to 100 | 50 to 90 | –
3 | CO[C@H]1/C=C/O[C@@]2(C)Oc3c(C)c(O)c4c(O)c(c(/C=N/N5CCN(C)CC5)c(O)c4c3C2=O)NC(=O)/C(C)=C\C=C\[C@H](C)[C@H](O)[C@@H](C)[C@@H](O)[C@@H](C)[C@H](OC(C)=O)[C@@H]1C [Rifampin] | 2020 | 19600 | 100000 | 1000 to 20000 | 15000 to 110000 | 765 | 1270 | 2080 | 2210 | 4040 | 2720 | 600 to 1400 | 1900 to 2300 | 2600 to 4200 | 27.1 | 20.8 | 44.3 | 15 to 45 | 10 to 40 | 30 to 60 | concentration at 2 h ([2]; 2 h, Right): 16400 ng/mL
